According to patent US12077503B2, “Substituted cyclic amides and their use as herbicides” (FMC CORPORATION, priority 2015, dated 2024):

Columns and labels:
Type in all cases: in vivo
[1] = system: wheat (Triticum aestivum); test: Test A postemergence; conditions: Triticum aestivum, post-emergence, 240 h, 125 g ai/ha, postemergence, visual injury vs untreated controls after approx. 10 d; 0 = no effect, 100 = complete control; read-out: Wheat plant response rating (0 to 100 scale)
How it was run: (§1)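 In a loam soil and sand blend, planted seeds got a preemergence directed soil spray, and young plants at the one- to two-leaf stage, 2–10 cm high, got a postemergence application; ~10 d greenhouse hold; injury rated visually, 0 = none, 100 = complete control.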

[2] = system: Galium (catchweed bedstraw, Galium aparine); test: Test A postemergence; conditions: Galium, post-emergence, 240 h, postemergence; for pest or weed control at 125 g/ha: 125 g ai/ha, visual injury vs untreated controls after approx. 10 d, 0 = no effect, 100 = complete control, read-out: Galium plant response rating (0 to 100 scale); for pest or weed control at 500 g/ha: 500 g ai/ha, 0 to 100 scale, 0 is no effect, 100 is complete control, read-out: Galium plant response rating
How it was run: as §1

[3] = system: barnyardgrass (Echinochloa crus-galli); test: Test A postemergence; conditions: Echinochloa crus-galli, post-emergence, 240 h, postemergence; for pest or weed control at 125 g/ha: 125 g ai/ha, visual injury vs untreated controls after approx. 10 d, 0 = no effect, 100 = complete control, read-out: Barnyardgrass plant response rating (0 to 100 scale); for pest or weed control at 500 g/ha: 500 g ai/ha, 0 to 100 scale, 0 is no effect, 100 is complete control, read-out: Barnyardgrass plant response rating
How it was run: as §1

[4] = system: giant foxtail (Setaria faberii); test: Test A postemergence; conditions: Setaria faberi, post-emergence, 240 h, postemergence; for pest or weed control at 125 g/ha: 125 g ai/ha, visual injury vs untreated controls after approx. 10 d, 0 = no effect, 100 = complete control, read-out: Foxtail, Giant plant response rating (0 to 100 scale); for pest or weed control at 500 g/ha: 500 g ai/ha, 0 to 100 scale, 0 is no effect, 100 is complete control, read-out: Foxtail, Giant plant response rating
How it was run: as §1

[5] = system: ragweed (common ragweed, Ambrosia elatior); test: Test A postemergence; conditions: Ambrosia artemisiifolia, post-emergence, 240 h, postemergence; for pest or weed control at 125 g/ha: 125 g ai/ha, visual injury vs untreated controls after approx. 10 d, 0 = no effect, 100 = complete control, read-out: Ragweed plant response rating (0 to 100 scale); for pest or weed control at 500 g/ha: 500 g ai/ha, 0 to 100 scale, 0 is no effect, 100 is complete control, read-out: Ragweed plant response rating
How it was run: as §1

[6] = system: ryegrass, Italian (Italian ryegrass, Lolium multiflorum); test: Test A postemergence; conditions: Lolium multiflorum, post-emergence, 240 h, postemergence; for pest or weed control at 125 g/ha: 125 g ai/ha, visual injury vs untreated controls after approx. 10 d, 0 = no effect, 100 = complete control, read-out: Ryegrass, Italian plant response rating (0 to 100 scale); for pest or weed control at 500 g/ha: 500 g ai/ha, 0 to 100 scale, 0 is no effect, 100 is complete control, read-out: Ryegrass, Italian plant response rating
How it was run: as §1

corn (Zea mays) = test: Test A postemergence; conditions: Zea mays, post-emergence, 240 h, postemergence; for plant injury at 125 g/ha: 125 g ai/ha, visual injury vs untreated controls after approx. 10 d, 0 = no effect, 100 = complete control, read-out: Corn plant response rating (0 to 100 scale); for plant injury at 500 g/ha: 500 g ai/ha, 0 to 100 scale, 0 is no effect, 100 is complete control, read-out: Corn plant response rating
How it was run: as §1

[7] = system: pigweed (Amaranthus retroflexus); test: Test A postemergence; conditions: Amaranthus retroflexus, post-emergence, 240 h, postemergence; for pest or weed control at 125 g/ha: 125 g ai/ha, visual injury vs untreated controls after approx. 10 d, 0 = no effect, 100 = complete control, read-out: Pigweed plant response rating (0 to 100 scale); for pest or weed control at 500 g/ha: 500 g ai/ha, 0 to 100 scale, 0 is no effect, 100 is complete control, read-out: Pigweed plant response rating
How it was run: as §1

Kochia (Kochia scoparia) [8] = test: Test A postemergence; conditions: Bassia scoparia, post-emergence, 240 h, postemergence; for pest or weed control at 125 g/ha: 125 g ai/ha, visual injury vs untreated controls after approx. 10 d, 0 = no effect, 100 = complete control, read-out: Kochia plant response rating (0 to 100 scale); for pest or weed control at 500 g/ha: 500 g ai/ha, 0 to 100 scale, 0 is no effect, 100 is complete control, read-out: Kochia plant response rating
How it was run: as §1

[9] = system: barnyardgrass (Echinochloa crus-galli); test: Test A preemergence; conditions: Echinochloa crus-galli, pre-emergence, 240 h, preemergence, 0 to 100 scale where 0 is no effect and 100 is complete control, read-out: Barnyardgrass plant response rating; for pest or weed control at 125 g/ha: 125 g ai/ha, visual injury rating, approximately 10 d; for pest or weed control at 500 g/ha: 500 g ai/ha
How it was run: as §1

[10] = system: giant foxtail (Setaria faberii); test: Test A preemergence; conditions: Setaria faberi, pre-emergence, 240 h, preemergence, 0 to 100 scale where 0 is no effect and 100 is complete control, read-out: Foxtail, Giant plant response rating; for pest or weed control at 125 g/ha: 125 g ai/ha, visual injury rating, approximately 10 d; for pest or weed control at 500 g/ha: 500 g ai/ha
How it was run: as §1

[11] = system: ragweed (common ragweed, Ambrosia elatior); test: Test A preemergence; conditions: Ambrosia artemisiifolia, pre-emergence, 240 h, preemergence, 0 to 100 scale where 0 is no effect and 100 is complete control, read-out: Ragweed plant response rating; for pest or weed control at 125 g/ha: 125 g ai/ha, visual injury rating, approximately 10 d; for pest or weed control at 500 g/ha: 500 g ai/ha
How it was run: as §1

[12] = system: ryegrass, Italian (Italian ryegrass, Lolium multiflorum); test: Test A preemergence; conditions: Lolium multiflorum, pre-emergence, 240 h, preemergence, 0 to 100 scale where 0 is no effect and 100 is complete control, read-out: Ryegrass, Italian plant response rating; for pest or weed control at 125 g/ha: 125 g ai/ha, visual injury rating, approximately 10 d; for pest or weed control at 500 g/ha: 500 g ai/ha
How it was run: as §1

[13] = system: pigweed (Amaranthus retroflexus); test: Test A preemergence; conditions: Amaranthus retroflexus, pre-emergence, 240 h, preemergence, 0 to 100 scale where 0 is no effect and 100 is complete control, read-out: Pigweed plant response rating; for pest or weed control at 125 g/ha: 125 g ai/ha, visual injury rating, approximately 10 d; for pest or weed control at 500 g/ha: 500 g ai/ha
Kochia (Kochia scoparia) [14] = test: Test A preemergence; conditions: Bassia scoparia, pre-emergence, 240 h, preemergence, 0 to 100 scale where 0 is no effect and 100 is complete control, read-out: Kochia plant response rating; for pest or weed control at 125 g/ha: 125 g ai/ha, visual injury rating, approximately 10 d; for pest or weed control at 500 g/ha: 500 g ai/ha
How it was run: as §1

| Compound | plant injury at 125 g/ha [1] [%] | pest or weed control at 125 g/ha [2] [%] | pest or weed control at 500 g/ha [2] [%] | pest or weed control at 125 g/ha [3] [%] | pest or weed control at 500 g/ha [3] [%] | pest or weed control at 125 g/ha [4] [%] | pest or weed control at 500 g/ha [4] [%] | pest or weed control at 125 g/ha [5] [%] | pest or weed control at 500 g/ha [5] [%] | pest or weed control at 125 g/ha [6] [%] | pest or weed control at 500 g/ha [6] [%] | plant injury at 125 g/ha (corn (Zea mays)) [%] | plant injury at 500 g/ha (corn (Zea mays)) [%] | pest or weed control at 125 g/ha [7] [%] | pest or weed control at 500 g/ha [7] [%] | pest or weed control at 125 g/ha (Kochia (Kochia scoparia) [8]) [%] | pest or weed control at 500 g/ha (Kochia (Kochia scoparia) [8]) [%] | pest or weed control at 125 g/ha [9] [%] | pest or weed control at 500 g/ha [9] [%] | pest or weed control at 125 g/ha [10] [%] | also measured |
| --- | --- | --- | --- | --- | --- | --- | --- | --- | --- | --- | --- | --- | --- | --- | --- | --- | --- | --- | --- | --- | --- |
| CN1C[C@H](c2ccc(C(F)(F)F)cc2)[C@@H](C(=O)Nc2cccc(Cl)c2F)C1=O [Compound 1238] | 0 | 20 | 50 | 50 | 80 | 60 | 80 | 0 | 20 | 20 | 60 | 20 | 40 | 0 | 30 | 30 | 50 | 80 | 90 | 90 | pest or weed control at 500 g/ha [10]: 90%; pest or weed control at 125 g/ha [11]: 0%; pest or weed control at 500 g/ha [11]: 50%; pest or weed control at 125 g/ha [12]: 0%; pest or weed control at 500 g/ha [12]: 50%; pest or weed control at 125 g/ha [13]: 0%; pest or weed control at 500 g/ha [13]: 60%; pest or weed control at 125 g/ha (Kochia (Kochia scoparia) [14]): 60%; pest or weed control at 500 g/ha (Kochia (Kochia scoparia) [14]): 60% |
| O=C1NC[C@H](c2ccc(C(F)(F)F)cc2)C1C(=O)Nc1ccccc1CO (stereo partly shown) [Compound 1242] | 0 | 0 | 20 | 20 | 40 | 20 | 50 | 0 | 0 | 0 | 0 | 0 | 0 | 0 | 0 | 0 | 0 | 20 | 60 | 30 | pest or weed control at 500 g/ha [10]: 80%; pest or weed control at 125 g/ha [11]: 0%; pest or weed control at 500 g/ha [11]: 0%; pest or weed control at 125 g/ha [12]: 0%; pest or weed control at 500 g/ha [12]: 0%; pest or weed control at 125 g/ha [13]: 0%; pest or weed control at 500 g/ha [13]: 0%; pest or weed control at 125 g/ha (Kochia (Kochia scoparia) [14]): 0%; pest or weed control at 500 g/ha (Kochia (Kochia scoparia) [14]): 0% |
